Measured values taken from ChEMBL document CHEMBL2007661, “Compounds: GSK PKIS; Assays: UNC Frye lab” (2012).
“And” between values parts separate entries of the source, which are not always exact repeats. Equal values may be shown once.

How the values were obtained:
[1] = molecular target: T1, Inhibitor of nuclear factor kappa-B kinase subunit epsilon (Homo sapiens) (UniProt Q14164); details: at 1 µM
T1 sequence (whole entry): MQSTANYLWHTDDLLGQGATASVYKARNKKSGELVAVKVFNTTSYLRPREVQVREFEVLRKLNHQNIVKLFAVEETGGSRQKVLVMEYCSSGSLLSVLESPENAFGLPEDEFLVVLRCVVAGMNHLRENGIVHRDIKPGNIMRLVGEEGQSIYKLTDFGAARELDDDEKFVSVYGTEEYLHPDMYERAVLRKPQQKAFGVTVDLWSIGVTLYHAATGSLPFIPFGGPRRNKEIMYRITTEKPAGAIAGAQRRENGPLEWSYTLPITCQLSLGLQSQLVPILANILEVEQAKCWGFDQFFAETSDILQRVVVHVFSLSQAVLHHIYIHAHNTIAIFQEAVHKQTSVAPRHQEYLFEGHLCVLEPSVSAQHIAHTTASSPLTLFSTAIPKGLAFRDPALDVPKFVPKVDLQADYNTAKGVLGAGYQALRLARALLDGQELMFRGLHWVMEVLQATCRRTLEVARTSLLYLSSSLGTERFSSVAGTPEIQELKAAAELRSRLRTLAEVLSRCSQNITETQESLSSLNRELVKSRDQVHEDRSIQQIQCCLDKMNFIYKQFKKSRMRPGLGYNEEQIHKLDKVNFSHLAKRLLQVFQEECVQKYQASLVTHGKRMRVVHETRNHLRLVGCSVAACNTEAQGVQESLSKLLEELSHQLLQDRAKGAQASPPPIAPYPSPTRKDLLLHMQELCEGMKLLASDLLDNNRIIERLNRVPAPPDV

[2] = molecular target: T2, Tyrosine-protein kinase Mer (Homo sapiens) (UniProt Q12866); details: at 10 µM
T2 sequence (whole entry): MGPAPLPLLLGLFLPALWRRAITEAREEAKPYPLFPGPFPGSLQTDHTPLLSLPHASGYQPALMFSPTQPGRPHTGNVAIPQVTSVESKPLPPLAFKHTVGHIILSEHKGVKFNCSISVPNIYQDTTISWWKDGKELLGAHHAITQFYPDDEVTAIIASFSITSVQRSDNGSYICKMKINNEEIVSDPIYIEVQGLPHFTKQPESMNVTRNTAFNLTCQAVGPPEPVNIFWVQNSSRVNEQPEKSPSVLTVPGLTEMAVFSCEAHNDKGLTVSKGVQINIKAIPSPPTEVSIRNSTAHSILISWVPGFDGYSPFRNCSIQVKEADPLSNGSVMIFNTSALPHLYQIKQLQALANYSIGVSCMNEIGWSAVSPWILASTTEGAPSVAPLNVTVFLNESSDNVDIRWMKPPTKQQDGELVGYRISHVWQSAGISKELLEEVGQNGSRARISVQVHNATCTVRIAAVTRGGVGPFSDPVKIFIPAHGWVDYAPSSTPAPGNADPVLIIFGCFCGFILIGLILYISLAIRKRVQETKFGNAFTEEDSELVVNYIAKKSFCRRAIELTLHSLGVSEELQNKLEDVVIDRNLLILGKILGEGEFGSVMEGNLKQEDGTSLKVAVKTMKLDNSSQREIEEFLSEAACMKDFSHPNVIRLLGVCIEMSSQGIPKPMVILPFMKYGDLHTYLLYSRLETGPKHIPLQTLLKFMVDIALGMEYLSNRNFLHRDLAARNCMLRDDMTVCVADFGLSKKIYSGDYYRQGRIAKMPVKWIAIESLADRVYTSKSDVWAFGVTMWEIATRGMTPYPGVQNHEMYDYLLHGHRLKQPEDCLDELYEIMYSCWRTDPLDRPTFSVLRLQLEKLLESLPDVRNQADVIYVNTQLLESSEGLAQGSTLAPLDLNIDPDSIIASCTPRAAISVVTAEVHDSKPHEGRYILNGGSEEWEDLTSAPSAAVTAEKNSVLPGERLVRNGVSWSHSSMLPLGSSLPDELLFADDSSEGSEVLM

| SMILES | inhibition [1] | inhibition [2] [%] |
| --- | --- | --- |
| COc1ccc(-c2ccncc2)cc1C(N)=O | 1% and 3% | 3 |
| N#Cc1cccc(Nc2ncc(-c3ccccc3)o2)c1 | 1% and -3% | 80 |
| COC(=O)Nc1nc2cc(Oc3ccc(NC(=O)Nc4cccc(Br)c4)cc3)ccc2[nH]1 | -3% and 0% | 4 |
| FC(F)(F)c1ccc(-c2nn3ncccc3c2-c2ccnc(Nc3ccc4c(c3)OCCO4)n2)cc1 | -2% | -6 |
| N#Cc1c(NC(=O)c2ccc(F)cc2)sc2c1CCCC2 | -4% and -3% | 1 |
| Nc1nccc(-c2c(-c3ccc(F)cc3)ncn2C2CCC(O)CC2)n1 (configuration not stated) | 0% and 1% | 29 |
| COc1ccccc1-c1cc(/C=C2\C(=O)Nc3ncc(Br)cc32)cc(Br)c1O | 10% | -2 |
| CS(=O)(=O)CCNCc1ccc(-c2ccc3ncnc(Nc4ccc(OCc5ccccc5)c(Br)c4)c3c2)o1 | -2% and -1% | 14 |
| CNC(=O)c1sc(-n2cnc3cc(OC)c(OC)cc32)cc1OCc1ccccc1C(F)(F)F | -3% and -2% | 4 |
| Fc1cccc(COc2ccc(Nc3ncnc4sc(-c5ccco5)cc34)cc2Cl)c1 | 0% and 2% | 78 |
| Nc1nc(-c2cccc(Cl)c2)c(-c2ccc3ncccc3n2)s1 | 1% | 1 |
| CCN1CCC(C(=O)Nc2n[nH]c3nnc(-c4cccc(F)c4F)cc23)CC1 | -1% and -3% | -7 |
| COc1ccc2ncn(-c3cc(O[C@H](C)c4ccccc4C(F)(F)F)c(C(N)=O)s3)c2c1 | -3% and -4% | 3 |
| O=S(=O)(CCOCc1ccc(-c2ccc3ncnc(Nc4ccc(OCc5cccc(F)c5)c(Cl)c4)c3c2)o1)c1ccccc1 | -2% and -1% | 5 |
| Cn1c(-c2nonc2N)nc2cnccc21 | 2% and 3% | -9 |

Results, then the compound that gave them:

| inhibition [1] | inhibition [2] [%] | SMILES |
| --- | --- | --- |
| 1% and 2% | 81 | c1cnn2ncc(-c3ccnc(NCCCN4CCOCC4)n3)c2c1 |
| 0% and -2% | -6 | CCCN1CCC(Oc2cc(Nc3nc(Nc4cccc(F)c4C(N)=O)c4cc[nH]c4n3)c(OC)cc2Cl)CC1 |
| 7% and 5% | -2 | FC(F)(F)c1cccc(Nc2nccc(-c3cnn4nc(-c5ccccc5)ccc34)n2)c1 |
| 39% and 40% | -1 | CCn1c(-c2nonc2N)nc2c(C#CC(C)(C)O)nc(OC[C@@H](N)c3ccccc3)cc21 |
| 13% and 11% | -1 | COC(=O)c1sc(-n2cnc3cc(OC)c(OC)cc32)cc1OCc1ccccc1C(F)(F)F |
| 39% and 44% | 68 | COc1cc2c(cc1Nc1nc(Nc3ccsc3C(N)=O)c3cc[nH]c3n1)N(C(=O)CN(C)C)CCC2(C)C |
